Experimental data from patent US8697739B2, “Bicyclic acetyl-CoA carboxylase inhibitors and uses thereof” (Novartis AG, priority 2010, dated 2014).

What follows are molecules tested against T1, human acetyl-CoA carboxylase 2 (ACC2) (Homo sapiens, UniProt O00763) (assay: Acetyl-CoA carboxylase enzyme assay (malonyl-CoA formation by LC/MS/MS)). Conditions: recombinant human ACC2 (aa 144-2458); read-out: IC50 ACC2.
T1 construct: The cDNA encoding amino acids 144 to 2458 of human acetyl-CoA carboxylase 2; made in house; host or cells: Sf9 insect cells (baculovirus, pFastBac1)
T1 sequence (O00763 144-2458): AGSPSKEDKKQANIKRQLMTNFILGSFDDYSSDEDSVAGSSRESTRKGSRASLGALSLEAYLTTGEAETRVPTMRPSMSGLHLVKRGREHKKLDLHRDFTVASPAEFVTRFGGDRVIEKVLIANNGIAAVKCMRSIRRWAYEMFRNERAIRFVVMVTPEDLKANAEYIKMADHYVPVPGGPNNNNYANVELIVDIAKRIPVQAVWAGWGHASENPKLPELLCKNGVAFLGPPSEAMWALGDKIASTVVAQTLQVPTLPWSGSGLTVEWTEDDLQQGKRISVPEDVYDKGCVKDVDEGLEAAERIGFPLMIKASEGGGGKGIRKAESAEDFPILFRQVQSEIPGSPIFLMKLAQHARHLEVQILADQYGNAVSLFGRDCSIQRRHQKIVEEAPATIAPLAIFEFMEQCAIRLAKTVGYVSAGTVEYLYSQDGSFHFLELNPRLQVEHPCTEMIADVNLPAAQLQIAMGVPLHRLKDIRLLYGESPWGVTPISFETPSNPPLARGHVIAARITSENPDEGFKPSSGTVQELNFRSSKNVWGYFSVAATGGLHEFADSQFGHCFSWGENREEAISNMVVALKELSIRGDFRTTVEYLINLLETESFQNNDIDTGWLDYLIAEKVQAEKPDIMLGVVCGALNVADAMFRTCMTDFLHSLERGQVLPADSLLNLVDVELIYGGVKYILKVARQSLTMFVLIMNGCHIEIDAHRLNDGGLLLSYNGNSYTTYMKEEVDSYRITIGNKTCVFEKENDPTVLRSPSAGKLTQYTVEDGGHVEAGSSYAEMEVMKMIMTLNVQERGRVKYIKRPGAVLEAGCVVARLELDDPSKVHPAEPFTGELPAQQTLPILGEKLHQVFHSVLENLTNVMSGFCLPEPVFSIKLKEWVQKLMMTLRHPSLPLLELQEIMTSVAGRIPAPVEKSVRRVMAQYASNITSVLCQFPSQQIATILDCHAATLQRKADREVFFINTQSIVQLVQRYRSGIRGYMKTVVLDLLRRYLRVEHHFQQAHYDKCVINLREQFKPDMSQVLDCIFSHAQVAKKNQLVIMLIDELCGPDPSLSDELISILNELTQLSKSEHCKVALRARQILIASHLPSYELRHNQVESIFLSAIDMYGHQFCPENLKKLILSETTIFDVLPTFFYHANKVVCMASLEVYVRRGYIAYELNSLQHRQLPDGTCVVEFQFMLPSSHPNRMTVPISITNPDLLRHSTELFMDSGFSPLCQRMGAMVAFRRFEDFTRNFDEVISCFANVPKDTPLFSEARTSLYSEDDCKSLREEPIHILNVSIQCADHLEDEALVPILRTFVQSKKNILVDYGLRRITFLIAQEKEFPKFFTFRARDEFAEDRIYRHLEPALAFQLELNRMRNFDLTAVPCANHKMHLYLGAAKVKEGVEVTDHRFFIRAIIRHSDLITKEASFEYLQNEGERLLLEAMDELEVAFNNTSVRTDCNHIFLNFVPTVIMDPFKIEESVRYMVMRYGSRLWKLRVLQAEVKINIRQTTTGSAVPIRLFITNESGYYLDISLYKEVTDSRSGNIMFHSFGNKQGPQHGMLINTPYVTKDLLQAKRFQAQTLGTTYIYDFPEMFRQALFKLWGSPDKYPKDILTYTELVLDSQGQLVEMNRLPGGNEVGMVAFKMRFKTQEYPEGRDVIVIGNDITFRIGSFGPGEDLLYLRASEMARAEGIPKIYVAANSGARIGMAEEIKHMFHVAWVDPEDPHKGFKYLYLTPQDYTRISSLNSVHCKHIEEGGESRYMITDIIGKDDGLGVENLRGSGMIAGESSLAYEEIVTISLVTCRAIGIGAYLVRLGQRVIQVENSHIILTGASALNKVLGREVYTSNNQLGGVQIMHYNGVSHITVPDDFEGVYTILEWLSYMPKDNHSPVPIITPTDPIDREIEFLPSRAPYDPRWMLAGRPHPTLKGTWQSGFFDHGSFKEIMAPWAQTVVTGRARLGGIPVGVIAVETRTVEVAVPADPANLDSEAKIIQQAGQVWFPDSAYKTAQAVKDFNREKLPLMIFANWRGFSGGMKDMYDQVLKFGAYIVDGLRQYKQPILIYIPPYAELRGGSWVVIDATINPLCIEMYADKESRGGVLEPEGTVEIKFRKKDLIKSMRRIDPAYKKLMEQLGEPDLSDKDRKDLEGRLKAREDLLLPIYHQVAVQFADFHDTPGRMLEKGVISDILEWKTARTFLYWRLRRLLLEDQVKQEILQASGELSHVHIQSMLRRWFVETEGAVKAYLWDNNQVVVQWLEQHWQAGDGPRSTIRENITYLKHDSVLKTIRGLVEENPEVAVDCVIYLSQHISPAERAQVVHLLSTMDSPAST
Type: biochemical
Outline: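 Malonyl-CoA formation was read by LC/MS/MS MRM against a [13C3]-malonyl-CoA internal standard, after acetic acid quench. The enzyme was baculovirus/Sf9-expressed human ACC2 residues 144–2458, given 15 minutes room-temperature compound preincubation in HEPES pH 7.5 buffer with MgCl2, citrate and DTT. Substrate solution held 50 μM acetyl-CoA, 120 μM ATP and 2 mM KHCO3.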
`COC(=O)c1ccc(-c2nc3cc(S(=O)(=O)N[C@H]4CC[C@H](C(=O)N[C@H](C)c5ccccc5)CC4)ccc3[nH]2)cc1` [Example 275, methyl 4-(5-(N-((1R,4r)-4-((R)-1-phenylethylcarbamoyl)cyclohexyl)sulfamoyl)-1H-benzo[d]imidazol-2-yl)benzoate] was tested, and the IC50 was 18 nM.
For `CC(C)(C)OC(=O)N1CCN(C(=O)[C@H]2CC[C@H](NS(=O)(=O)c3ccc4c(c3)CCC4)CC2)[C@@H](c2ccccc2)C1` [Example 241, (S)-tert-butyl 4-((1r,4S)-4-(2,3-dihydro-1H-indene-5-sulfonamido)cyclohexanecarbonyl)-3-phenylpiperazine-1-carboxylate], the IC50 was 25 nM.
In the case of `CNCc1ccc(-c2nc3cc(S(=O)(=O)Nc4ccc(C(=O)OC(C)C)cc4)ccc3[nH]2)cc1` [Example 559, isopropyl 4-(2-(4-((methylamino)methyl)phenyl)-1H-benzo[d]imidazole-5-sulfonamido)benzoate], the IC50 is reported as 163 nM.
In the case of `Cc1ccccc1-c1cc2ccc(S(=O)(=O)N[C@H]3CC[C@H](C(=O)N4CCC[C@H]4C)CC3)cc2[nH]1` [Example 137, N-((1R,4r)-4-((R)-2-methylpyrrolidine-1-carbonyl)cyclohexyl)-2-o-tolyl-1H-indole-6-sulfonamide], the IC50 is reported as 162 nM.
`CC(C)(C)c1nnc(-c2ccc(NS(=O)(=O)c3ccc4nc(-c5ccccc5)[nH]c4c3)cc2)o1` [Example 513, N-(4-(5-tert-butyl-1,3,4-oxadiazol-2-yl)phenyl)-2-phenyl-1H-benzo[d]imidazole-6-sulfonamide] was tested, and the IC50 was 2880 nM.
With `O=C(OCc1ccccc1)N1CCN(C(=O)[C@H]2CC[C@H](NS(=O)(=O)c3cnc4c(c3)NCCN4)CC2)C(c2ccccc2)C1` (stereo partly shown) [Example 181, benzyl 3-phenyl-4-((1r,4r)-4-(1,2,3,4-tetrahydropyrido[3,2-b]pyrazine-7-sulfonamido)cyclohexanecarbonyl)piperazine-1-carboxylate] the IC50 was 115 nM.
Work on `C[C@@H](NC(=O)[C@H]1CC[C@H](NS(=O)(=O)c2ccc3c(c2)Cc2ccccc2-3)CC1)c1ccc(F)cc1` [Example 226, (1r,4R)-4-(9H-fluorene-2-sulfonamido)-N-((R)-1-(4-fluorophenyl)ethyl)cyclohexanecarboxamide] yielded an IC50 of 10 nM.
Work on `C[C@H]1C[C@H](C)CN(C(=O)[C@H]2CC[C@H](NS(=O)(=O)c3ccc4[nH]c(-c5ccccc5)nc4c3)CC2)C1` [Example 665, N-((1S,4r)-4-((3S,5S)-3,5-dimethylpiperidine-1-carbonyl)cyclohexyl)-2-phenyl-1H-benzo[d]imidazole-5-sulfonamide] yielded an IC50 of 40 nM.
`CC(=O)N1CCc2cc(S(=O)(=O)N[C@H]3CC[C@H](C(=O)N[C@H](C)c4ccc(F)cc4)CC3)ccc21` [Example 106, (1r,4R)-4-(1-acetylindoline-5-sulfonamido)-N-((R)-1-(4-fluorophenyl)ethyl)cyclohexanecarboxamide] was tested, and the IC50 was 388 nM.
In the case of `CC(C)OC(=O)c1ccc(NS(=O)(=O)c2ccc3nc(-c4cccc(F)c4)[nH]c3c2)cc1` [Example 496, isopropyl 4-(2-(3-fluorophenyl)-1H-benzo[d]imidazole-6-sulfonamido)benzoate], the IC50 is reported as 2340 nM.
`CC(C)N(C)C(=O)[C@H]1CC[C@H](NS(=O)(=O)c2ccc3[nH]c(-c4cccnc4)cc3c2)CC1` [Example 288, (1r,4r)-N-isopropyl-N-methyl-4-(2-(pyridin-3-yl)-1H-indole-5-sulfonamido)cyclohexanecarboxamide] gave an IC50 of 400 nM.
For `C[C@@H](NC(=O)[C@H]1CC[C@H](NS(=O)(=O)c2ccc3cc(-c4ccccc4)[nH]c3c2)CC1)c1ccccn1` [Example 19, (1r,4R)-4-(2-phenyl-1H-indole-6-sulfonamido)-N—((R)-1-(pyridin-2-yl)ethyl)cyclohexanecarboxamide], the IC50 was 56 nM.
`C[C@@H](NC(=O)[C@H]1CC[C@H](NS(=O)(=O)c2ccc3[nH]c(=O)oc3c2)CC1)c1ccc(F)cc1` [Example 659, (1r,4R)-N-((R)-1-(4-fluorophenyl)ethyl)-4-(2-oxo-2,3-dihydrobenzo[d]oxazole-6-sulfonamido)cyclohexanecarboxamide] gave an IC50 of 378 nM.
`C[C@@H](NC(=O)[C@H]1CC[C@H](NS(=O)(=O)c2ccc3nc(-c4ccccn4)ccc3c2)CC1)c1ccc(F)cc1` [Example 230, (1r,4R)-N-((R)-1-(4-fluorophenyl)ethyl)-4-(2-(pyridin-2-yl)quinoline-6-sulfonamido)cyclohexanecarboxamide] was tested, and the IC50 was 60 nM.
Molecule `C=Cc1ccc2cc(S(=O)(=O)N[C@H]3CC[C@H](C(=O)N[C@H](C)c4ccc(F)cc4)CC3)ccc2n1` [Example 71, (1r,4R)-N-((R)-1-(4-fluorophenyl)ethyl)-4-(2-vinylquinoline-6-sulfonamido)cyclohexanecarboxamide] has an IC50 of 405 nM.
Work on `C[C@@H](NC(=O)[C@H]1CC[C@H](NS(=O)(=O)c2ccc3cc(-c4c(Cl)cccc4Cl)[nH]c3c2)CC1)c1ccc(F)cc1` [Example 295, (1r,4R)-4-(2-(2,6-dichlorophenyl)-1H-indole-6-sulfonamido)-N-((R)-1-(4-fluorophenyl)ethyl)cyclohexanecarboxamide] yielded an IC50 of 475 nM.
With `Cn1c(-c2ccccc2)c(Cl)c2ccc(S(=O)(=O)N[C@H]3CC[C@H](C(=O)N4CCCCC4)CC3)cc21` [Example 374, 3-chloro-1-methyl-2-phenyl-N-((1r,4r)-4-(piperidine-1-carbonyl)cyclohexyl)-1H-indole-6-sulfonamide] the IC50 was 20 nM.
`Cn1c(-c2ccccc2)cc2cc(S(=O)(=O)N[C@H]3CC[C@H](C(=O)N4CC(C(=O)O)CCC4c4ccccc4)CC3)ccc21` (stereo partly shown) [Example 92, 1-((1r,4r)-4-(1-methyl-2-phenyl-1H-indole-5-sulfonamido)cyclohexanecarbonyl)-6-phenylpiperidine-3-carboxylic acid] was tested, and the IC50 was under 10 nM.
`O=C([C@H]1CC[C@H](NS(=O)(=O)c2ccc3cc(-c4ccccc4)[nH]c3c2)CC1)N1CCCCC1` [Example 375, 2-phenyl-N-((1r,4r)-4-(piperidine-1-carbonyl)cyclohexyl)-1H-indole-6-sulfonamide] was tested, and the IC50 was 75 nM.
`CCC1CCc2cc(S(=O)(=O)N[C@H]3CC[C@H](C(=O)N[C@H](C)c4ccc(F)cc4)CC3)ccc2N1` (stereo partly drawn) [Example 77, (1r,4R)-4-(2-ethyl-1,2,3,4-tetrahydroquinoline-6-sulfonamido)-N-((R)-1-(4-fluorophenyl)ethyl)cyclohexanecarboxamide] showed an IC50 of 50 nM.
`O=C(NC1CCCCC1)[C@H]1CC[C@H](NS(=O)(=O)c2ccc3[nH]c(-c4ccccc4)nc3c2)CC1` [Example 632, (1r,4r)-N-cyclohexyl-4-(2-phenyl-1H-benzo[d]imidazole-5-sulfonamido)cyclohexanecarboxamide] gave an IC50 of 145 nM.
With `COCCOc1ccc(-c2cc3ccc(S(=O)(=O)N[C@H]4CC[C@H](C(=O)N[C@H](C)c5ccc(F)cc5)CC4)cc3n2C)cc1` [Example 452, (1r,4R)-N-((R)-1-(4-fluorophenyl)ethyl)-4-(2-(4-(2-methoxyethoxy)phenyl)-1-methyl-1H-indole-6-sulfonamido)cyclohexanecarboxamide] the IC50 was 10 nM.
In the case of `COC(=O)N1CCNc2ncc(S(=O)(=O)N[C@H]3CC[C@H](C(=O)N[C@H](C)c4ccc(F)cc4)CC3)cc21` [Example 222, methyl 7-(N-((1R,4r)-4-((R)-1-(4-fluorophenyl)ethylcarbamoyl)cyclohexyl)sulfamoyl)-3,4-dihydropyrido[3,2-b]pyrazine-1(2H)-carboxylate], the IC50 is reported as 40 nM.
`CC(C)OC(=O)c1ccc(NS(=O)(=O)c2ccc3[nH]c(Nc4cccc(C(C)O)c4)nc3c2)cc1` (stereo not shown) [Example 553, isopropyl 4-(2-(3-(1-hydroxyethyl)phenylamino)-1H-benzo[d]imidazole-5-sulfonamido)benzoate] showed an IC50 of 119 nM.
For `CC(C)CNC(=O)[C@H]1CC[C@H](NS(=O)(=O)c2ccc3[nH]c(-c4ccccc4)nc3c2)CC1` [Example 629, (1r,4r)-N-isobutyl-4-(2-phenyl-1H-benzo[d]imidazole-5-sulfonamido)cyclohexanecarboxamide], the IC50 was 1760 nM.
`Cn1c(-c2ccccc2)cc2ccc(S(=O)(=O)N[C@H]3CC[C@H](C(=O)N4CCC[C@@H]4CO)CC3)cc21` [Example 432, N-((1R,4r)-4-((R)-2-(hydroxymethyl)pyrrolidine-1-carbonyl)cyclohexyl)-1-methyl-2-phenyl-1H-indole-6-sulfonamide] gave an IC50 of 95 nM.
`CC(C)OC(=O)c1ccc(NS(=O)(=O)c2ccc3[nH]c(-c4ccc(CNCc5ccccc5)cc4)nc3c2)cc1` [Example 560, isopropyl 4-(2-(4-((benzylamino)methyl)phenyl)-1H-benzo[d]imidazole-5-sulfonamdo)benzoate] was tested, and the IC50 was 397 nM.
`O=C([C@H]1CC[C@H](NS(=O)(=O)c2cnc3ccccc3c2)CC1)N1CCNC[C@@H]1c1ccccc1` [Example 85, N-((1S,4r)-4-((S)-2-phenylpiperazine-1-carbonyl)cyclohexyl)quinoline-3-sulfonamide] showed an IC50 of 143 nM.
`CC(C)[C@H]1COCCN1C(=O)[C@H]1CC[C@H](NS(=O)(=O)c2ccc3cc(-c4ccccc4)n(C)c3c2)CC1` [Example 434, N-((1S,4r)-4-((S)-3-isopropylmorpholine-4-carbonyl)cyclohexyl)-1-methyl-2-phenyl-1H-indole-6-sulfonamide] gave an IC50 of 10 nM.
For `C[C@@H](NC(=O)[C@H]1CC[C@H](NS(=O)(=O)c2ccc3nc(CCC(=O)O)ccc3c2)CC1)c1ccc(F)cc1` [Example 219, 3-(6-(N-((1R,4r)-4-((R)-1-(4-fluorophenyl)ethylcarbamoyl)cyclohexyl)sulfamoyl)quinolin-2-yl)propanoic acid], the IC50 was 495 nM.
`C[C@@H](NC(=O)[C@H]1CC[C@H](NS(=O)(=O)c2ccc3c(c2)CCC(C)(C)O3)CC1)c1ccc(F)cc1` [Example 144, (1r,4R)-4-(2,2-dimethylchroman-6-sulfonamido)-N-((R)-1-(4-fluorophenyl)ethyl)cyclohexanecarboxamide] showed an IC50 of 314 nM.
